Calls of active or inactive are those of the source. The calls are words filed in the database; no cut-off is given here.
How the values were obtained:
[1] = target: T1, A disintegrin and metalloproteinase with thrombospondin motifs 4 (Homo sapiens, UniProt O75173)
T1 sequence (O75173 whole entry): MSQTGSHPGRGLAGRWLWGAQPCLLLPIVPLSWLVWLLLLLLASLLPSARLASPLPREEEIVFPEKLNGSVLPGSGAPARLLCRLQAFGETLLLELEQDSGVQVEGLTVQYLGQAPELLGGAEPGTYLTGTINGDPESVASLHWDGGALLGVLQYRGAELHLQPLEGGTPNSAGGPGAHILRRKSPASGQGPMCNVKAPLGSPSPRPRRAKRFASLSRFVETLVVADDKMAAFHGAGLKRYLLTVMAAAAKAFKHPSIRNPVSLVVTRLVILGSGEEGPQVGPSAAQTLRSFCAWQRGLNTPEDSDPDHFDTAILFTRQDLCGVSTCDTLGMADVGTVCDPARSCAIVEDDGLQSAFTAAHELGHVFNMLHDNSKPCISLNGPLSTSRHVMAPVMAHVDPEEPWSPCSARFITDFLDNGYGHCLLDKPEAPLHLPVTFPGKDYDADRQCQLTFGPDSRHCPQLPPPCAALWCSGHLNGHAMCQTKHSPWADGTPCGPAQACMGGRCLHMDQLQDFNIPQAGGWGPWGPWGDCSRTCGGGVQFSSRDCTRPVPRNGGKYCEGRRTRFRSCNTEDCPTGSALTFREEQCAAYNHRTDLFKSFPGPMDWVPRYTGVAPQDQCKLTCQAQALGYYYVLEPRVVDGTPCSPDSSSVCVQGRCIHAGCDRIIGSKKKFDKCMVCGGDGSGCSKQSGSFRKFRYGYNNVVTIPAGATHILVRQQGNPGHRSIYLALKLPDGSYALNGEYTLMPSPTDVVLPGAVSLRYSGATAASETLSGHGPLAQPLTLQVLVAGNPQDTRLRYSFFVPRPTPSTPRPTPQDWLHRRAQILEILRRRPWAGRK

[2] = target: T2, A disintegrin and metalloproteinase with thrombospondin motifs 4 (Homo sapiens) (UniProt O75173); experiment: Inhibitory activity against human Aggrecanase 1
T2 sequence (whole entry): T1 sequence (O75173 whole entry)

[3] = Oral bioavailability in male Sprague-Dawley rats; format: ADME, organism-based; settings: rat, in vivo
[4] = target: 72 kDa type IV collagenase (Homo sapiens, UniProt P08253); experiment: Inhibitory activity against MMP2
[5] = target: Matrix metalloproteinase-14 (Homo sapiens, UniProt P50281); experiment: Inhibitory activity against MMP14
[6] = Cmax in male Sprague-Dawley rats; format: ADME, organism-based; settings: rat, in vivo
[7] = Half life in male Sprague-Dawley rats; format: ADME, organism-based; settings: rat, in vivo
Collagenase 3 = Collagenase 3 (Homo sapiens, UniProt P45452)
Interstitial collagenase = target: T3, Interstitial collagenase (Homo sapiens, UniProt P03956); experiment: Inhibitory activity against MMP1
T3 sequence (P03956 whole entry): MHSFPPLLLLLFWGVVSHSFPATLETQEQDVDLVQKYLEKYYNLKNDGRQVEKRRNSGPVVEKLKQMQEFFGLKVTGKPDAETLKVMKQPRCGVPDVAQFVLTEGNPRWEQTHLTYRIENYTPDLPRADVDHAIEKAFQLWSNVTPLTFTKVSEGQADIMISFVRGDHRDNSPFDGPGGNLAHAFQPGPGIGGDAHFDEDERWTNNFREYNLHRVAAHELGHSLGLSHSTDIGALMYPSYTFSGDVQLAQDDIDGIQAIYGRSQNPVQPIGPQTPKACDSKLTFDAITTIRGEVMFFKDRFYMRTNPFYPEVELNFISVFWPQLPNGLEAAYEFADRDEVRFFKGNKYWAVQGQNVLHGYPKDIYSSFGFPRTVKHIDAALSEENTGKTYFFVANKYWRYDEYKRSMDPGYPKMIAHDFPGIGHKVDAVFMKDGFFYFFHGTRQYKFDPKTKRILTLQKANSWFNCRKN

[8] = target: T4, A disintegrin and metalloproteinase with thrombospondin motifs 4 (Bos taurus) (UniProt Q9TT93); experiment: Inhibition of IL1induced proteoglycan degradation in bovine cartilage, 3 day incubation at 10 ug/mL; format: functional
T4 sequence (whole entry): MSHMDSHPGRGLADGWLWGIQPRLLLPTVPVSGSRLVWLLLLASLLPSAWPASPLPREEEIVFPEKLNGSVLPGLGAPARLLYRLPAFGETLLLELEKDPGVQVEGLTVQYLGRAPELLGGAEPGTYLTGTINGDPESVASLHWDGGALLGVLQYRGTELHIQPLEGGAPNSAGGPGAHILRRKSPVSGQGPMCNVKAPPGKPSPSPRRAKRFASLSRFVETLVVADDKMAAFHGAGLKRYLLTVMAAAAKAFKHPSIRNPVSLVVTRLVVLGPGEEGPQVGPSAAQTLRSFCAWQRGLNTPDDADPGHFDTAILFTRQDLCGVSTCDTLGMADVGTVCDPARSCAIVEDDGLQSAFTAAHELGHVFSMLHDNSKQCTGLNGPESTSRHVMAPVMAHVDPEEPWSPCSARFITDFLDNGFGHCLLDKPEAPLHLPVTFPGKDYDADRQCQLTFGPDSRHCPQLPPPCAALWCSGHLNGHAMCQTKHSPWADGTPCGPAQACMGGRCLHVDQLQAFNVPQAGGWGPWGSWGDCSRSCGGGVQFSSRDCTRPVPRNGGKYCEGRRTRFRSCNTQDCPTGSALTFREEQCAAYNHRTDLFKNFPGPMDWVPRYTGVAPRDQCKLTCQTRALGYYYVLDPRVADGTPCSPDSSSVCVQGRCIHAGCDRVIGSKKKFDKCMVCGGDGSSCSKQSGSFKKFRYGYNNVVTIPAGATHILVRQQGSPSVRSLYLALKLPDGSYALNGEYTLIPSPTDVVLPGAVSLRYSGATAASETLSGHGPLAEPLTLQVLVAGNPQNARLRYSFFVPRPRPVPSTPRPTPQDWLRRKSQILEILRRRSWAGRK

[9] = Clearance in male Sprague-Dawley rats; format: ADME, organism-based; settings: rat, in vivo

Sequence of 72 kDa type IV collagenase (P08253 whole entry): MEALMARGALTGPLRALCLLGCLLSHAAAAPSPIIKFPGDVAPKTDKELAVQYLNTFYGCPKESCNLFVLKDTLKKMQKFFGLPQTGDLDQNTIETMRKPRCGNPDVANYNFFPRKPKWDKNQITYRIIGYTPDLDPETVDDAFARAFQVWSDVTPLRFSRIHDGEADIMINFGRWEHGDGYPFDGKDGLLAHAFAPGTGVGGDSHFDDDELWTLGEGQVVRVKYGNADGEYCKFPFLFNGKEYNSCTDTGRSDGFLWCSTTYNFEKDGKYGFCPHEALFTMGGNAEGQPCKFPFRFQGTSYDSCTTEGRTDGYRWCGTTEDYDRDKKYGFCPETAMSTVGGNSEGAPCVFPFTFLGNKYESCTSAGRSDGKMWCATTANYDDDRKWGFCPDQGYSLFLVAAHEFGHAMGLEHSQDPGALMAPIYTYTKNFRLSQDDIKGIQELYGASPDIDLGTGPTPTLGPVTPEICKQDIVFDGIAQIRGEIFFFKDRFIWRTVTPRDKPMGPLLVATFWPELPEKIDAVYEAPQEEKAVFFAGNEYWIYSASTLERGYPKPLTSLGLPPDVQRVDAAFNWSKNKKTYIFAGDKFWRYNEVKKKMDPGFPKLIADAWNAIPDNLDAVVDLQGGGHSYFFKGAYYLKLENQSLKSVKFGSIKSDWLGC

| Structure (SMILES) | IC50 [1] [µM] | other results |
| --- | --- | --- |
| O=C(O)[C@@H](Cc1ccccc1)NS(=O)(=O)c1ccc(-c2ccccc2)cc1 | 4.3 | – |
| COc1ccc(S(=O)(=O)N(Cc2cccnc2)C(C(=O)NO)C(C)C)cc1 (single isomer, unassigned) | – | inhibition [2]: inactive |
| Cc1c(C(=O)Oc2ccc(-c3ccc(S(=O)(=O)N[C@@H](C(=O)O)C(C)C)cc3)cc2)oc2ccccc12 | 0.086 | – |
| CC(C)[C@@H](NS(=O)(=O)c1ccc(-c2ccc(CC(=O)c3cc4ccccc4o3)cc2)cc1)C(=O)O | 3.8 | – |
| O=C(O)CC[C@@H](NS(=O)(=O)c1ccc(-c2ccccc2)cc1)C(=O)O | 1.1 | – |
| CC(C)[C@@H](NS(=O)(=O)c1ccc(-c2ccccc2)c(N)c1)C(=O)O | 30 | – |
| CC(C)[C@@H](NS(=O)(=O)c1ccc(-c2ccccc2[N+](=O)[O-])cc1)C(=O)O | 50 | – |
| CC(C)[C@@H](NS(=O)(=O)c1ccc(-c2ccc(OCc3cc4ccccc4o3)cc2)cc1)C(=O)O | 1.4 | – |
| CC(C)[C@@H](NS(=O)(=O)c1ccc(-c2ccc(NC(=O)c3cc4ccccc4o3)cc2)cc1)C(=O)O | 7.5 | – |
| O=C(O)[C@@H](Cc1cc2ccccc2[nH]1)NS(=O)(=O)c1ccc(-c2ccccc2)cc1 | 2.8 | – |
| Cc1c(COc2ccc(-c3ccc(S(=O)(=O)N[C@H](Cc4ccccc4)C(=O)O)cc3)cc2)oc2ccccc12 | 0.7 | bioavailability [3]: 35%; IC50 [4]: 0.028 µM; IC50 [5]: 3 µM; Cmax [6]: 1360 ng/mL; half-life [7]: 4.62 h; IC50 (Collagenase 3): 0.0044 µM; IC50 (Interstitial collagenase): > 100 µM; inhibition [8]: 89%; clearance [9]: 16.1 mL/min/kg |
| CC(C)[C@@H](NS(=O)(=O)c1ccc(-c2ccc(OC(=O)c3cc4ccccc4o3)cc2)cc1)C(=O)O | 0.35 | – |
| CC(C)[C@H](C(=O)O)N(Cc1cccnc1)S(=O)(=O)c1ccc(-c2ccccc2)cc1 | 12 | – |
| COc1ccc(S(=O)(=O)N(Cc2cccnc2)[C@@H](C(=O)NO)C(C)C)cc1 | – | inhibition ([2]; concentration not given here): 92% |
| CC(C)[C@@H](NS(=O)(=O)c1ccc(-c2ccc(/C=C/c3cc4ccccc4o3)cc2)cc1)C(=O)O | 0.4 | – |

Second part, led by results:

| IC50 [1] [µM] | Structure (SMILES) | other results |
| --- | --- | --- |
| 20 | CC(C)[C@@H](NS(=O)(=O)c1ccc(-c2ccccc2O)cc1)C(=O)O | – |
| 100 | CC(C)C(CC(=O)O)NS(=O)(=O)c1ccc(-c2ccccc2)cc1 (stereo unspecified) | – |
| > 100 | CC(C)[C@H](NS(=O)(=O)c1ccc(-c2ccccc2)cc1)C(=O)O | – |
| 3 | CC(C)[C@@H](NS(=O)(=O)c1ccc(-c2ccccc2)cc1)C(=O)O | – |
| 1.6 | CC(C)[C@H](C(=O)O)N(C)S(=O)(=O)c1ccc(-c2ccccc2)cc1 | – |
| 5.5 | C[C@@H](NS(=O)(=O)c1ccc(-c2ccccc2)cc1)C(=O)O | – |
| > 100 | CC(C)[C@@H](NS(=O)(=O)c1cccc(-c2ccccc2)c1)C(=O)O | – |
